From patent US12291532B2, “Substituted xanthines as modulators of TRPC5 activity” (Boehringer Ingelheim International GmbH, priority 2018, dated 2025)

target: T1, TRPC5 (Homo sapiens, UniProt Q9UL62); assay: Assay A: Determination of TRPC5-Inhibition (whole-cell patch clamp); format: cell-based; conditions: compounds of the present invention, TRPC5-expressing HEK293 TREx cells, current activated by LaCl3
T1 construct: expressed in transfected cells; host or cells: HEK293 TREx (inducible expression, induced 20-48 hours)
T1 sequence (Q9UL62 1-973): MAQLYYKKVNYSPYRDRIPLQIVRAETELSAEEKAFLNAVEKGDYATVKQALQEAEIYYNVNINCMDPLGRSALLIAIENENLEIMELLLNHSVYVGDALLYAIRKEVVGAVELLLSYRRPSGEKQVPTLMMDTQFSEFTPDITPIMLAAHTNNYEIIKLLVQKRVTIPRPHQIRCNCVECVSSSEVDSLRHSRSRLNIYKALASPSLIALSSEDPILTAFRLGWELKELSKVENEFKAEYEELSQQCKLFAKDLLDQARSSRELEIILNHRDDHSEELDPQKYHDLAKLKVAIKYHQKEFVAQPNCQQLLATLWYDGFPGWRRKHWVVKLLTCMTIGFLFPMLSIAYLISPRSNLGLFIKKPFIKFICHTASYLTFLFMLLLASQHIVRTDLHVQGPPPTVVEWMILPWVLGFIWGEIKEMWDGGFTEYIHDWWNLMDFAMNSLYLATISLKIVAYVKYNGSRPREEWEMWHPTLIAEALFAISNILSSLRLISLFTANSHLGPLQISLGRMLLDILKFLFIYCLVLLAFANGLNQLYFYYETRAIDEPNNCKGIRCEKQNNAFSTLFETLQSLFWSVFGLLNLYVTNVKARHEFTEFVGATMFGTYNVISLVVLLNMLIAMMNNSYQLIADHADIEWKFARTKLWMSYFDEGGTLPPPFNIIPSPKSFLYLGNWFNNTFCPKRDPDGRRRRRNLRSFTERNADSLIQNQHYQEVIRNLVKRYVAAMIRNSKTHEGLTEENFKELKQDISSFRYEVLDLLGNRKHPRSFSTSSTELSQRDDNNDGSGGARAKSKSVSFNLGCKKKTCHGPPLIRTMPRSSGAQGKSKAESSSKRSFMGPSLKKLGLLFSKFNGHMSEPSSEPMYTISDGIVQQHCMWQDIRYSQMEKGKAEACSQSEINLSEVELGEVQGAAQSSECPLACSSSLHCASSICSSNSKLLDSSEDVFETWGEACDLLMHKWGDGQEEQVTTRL
Text: Assay A: Determination of TRPC5-Inhibition
Patch clamp experiments permit the detection of currents through the TRPC5 channel in a cell line. In normal whole-cell patch clamp recordings, a glass electrode is brought into contact with a single cell and a high-resistance (gigaohm) seal is established with the cell membrane. The membrane is then ruptured to achieve the whole-cell configuration, permitting control of the voltage of the cell membrane and measurement of currents flowing across the membrane using the amplifier attached to the electrode and resulting in the replacement of cytoplasm with the pipette solution. A perfusion system permits control of the extracellular solution, including the addition of blockers and activators of the current. The current can be activated by including 1.4 μM free Ca2+ in the pipette (intracellular) solution, and 80 μM LaCl3 in the extracellular solution.
TRPC5 cells were induced 20-48 hours, removed from growth plates, and replated at low density (to attain good single-cell physical separation) on glass coverslips for measurement. In some cases, cells were grown in low density overnight on glass coverslips. Patch clamp recordings were made in the whole-cell mode with a holding potential of −40 mV. Every 5 seconds, a voltage ramp was applied from −120 to +100 mV, 400 ms in duration. Currents elicited were quantified at −80 mV and +80 mV. The internal solution consisted of 140 mM cesium aspartate, 10 mM HEDTA, 2 mM CaCl2, 2.27 mM MgCl2 and 10 mM HEPES, pH 7.2, with 1,400 nM calculated free Ca2+. The external solution consisted of 150 mM NaCl, 4.5 mM 15 KCl, 1 mM MgCl2, 2 mM CaCl2, 10 mM HEPES, 10 mM glucose, 1 mM EGTA, pH 7.4. Upon addition of LaCl3, TRPC5 current was induced only in TRPC5-expressing cells and not in parental HEK293 TREx cells. Removal of the LaCh stimulus causes most of the current to go away. Potential blockers were tested for ability to block both inward and outward currents in the continued presence of LaCl3.
IC50 of a compound of the invention was estimated by testing the compound 500 nM. […] Compounds blocking 50% or more at 500 nM are retested at multiple concentrations, and the % block is fitted by standard equations to determine […] accurately, using a […] concentration-response experiment.

IC50 [nM]	SMILES
0.172	CCn1c(=O)n(CCCO)c(=O)c2c1nc(-c1ncc(OC3CCC3C)nc1C)n2Cc1ccc(Cl)cc1 (stereo not drawn) [Example 1]
0.207	Cc1nc(OC2CCC2)cnc1-c1nc2c(c(=O)n(CCCO)c(=O)n2C(C)C)n1Cc1ccccc1 [Example 2]
0.506	CCn1c(=O)n(CCCO)c(=O)c2c1nc(-c1cnc(OC3CCC3)cn1)n2Cc1ccc(F)cc1 [Example 3]
0.29	CCn1c(=O)n(CCCO)c(=O)c2c1nc(-c1ncc(OC3CCC3C)nc1C)n2Cc1ccc(F)cc1 (stereo not drawn) [Example 5]
1.11	CCn1c(=O)n(CCCO)c(=O)c2c1nc(-c1cnc(OC3CCC3)cn1)n2Cc1ccccc1 [Example 4]
1.22	CCn1c(=O)n(CCCO)c(=O)c2c1nc(-c1ncc(OC3CCC3)nc1C)n2Cc1ccccc1 [Example 6]
